The values that follow come from US5925333A, “Methods for modulation of lipid uptake” (Massachusetts Institute of Technology, priority 1995, dated 1999).

Assay [1] deals with murine scavenger receptor protein type BI (mSR-BI) (murine).
Assay [2] has the same target. This is another data set of the same source.
In another assay the test system is SR-BI. As to the kind of experiment: Immunoblot of SR-BI expression in tissues of estrogen-treated rats. In kind it is in vivo, rat. The following applies: 5 mg/kg subcutaneous for five consecutive days. The protocol: To determine the size of mSR-BI and its tissue distribution, a rabbit anti-mSR-BI polyclonal antibody was prepared by immunization of a 16 amino acid peptide (residues 495 to 509 from the predicted protein sequence of mSR-BI plus an additional N-terminal cysteine) coupled to keyhole limpet hemocyanin. This is referred to as anti-mSR-BI^495 antiserum. The antiserum was used for immunoblot analysis of cultured cells and murine tissues.
Post-nuclear cell extracts from ldlA and ldlA[mSR-BI] cells and membranes (post-nuclear 100,000×g pellets) from murine tissues were isolated, reduced, and separated by 6.5% SDS-polyacrylamide gel electrophoresis (50 μg protein/lane), transferred to nitrocellulose and probed with a primary anti-mSR-BI^495 antipeptide antibody (rabbit IgG fraction, 1:5000 dilution) and developed using a horseradish peroxidase labeled second antibody and ECL kit (5 min exposure, Amersham). Ponceau S staining was used as a control for gel loading and transfer.
Tissues of estrogen-treated rats were screened for expression of SR-BI as described above following treatment of rats with 17-α-ethylenyl estradiol (estrogen). The rats were treated for five consecutive days with subcutaneous injections of 5 mg/kg 17-α-ethylenyl estradiol in propylene glycol or with propylene glycol alone (sham-injected).
Background: A western blot detects proteins with antibodies after separation by electrophoresis.

The next assay has as its system liver cells. Nature of the assay: Uptake of lipid from fluorescently labeled HDL injected into estrogen-treated rats, liver. The class given is in vivo, rat. The following applies: fluorescently labeled HDL injected into estrogen-treated vs sham-injected rats.
The test system of a further assay is LDL receptor. As to the kind of experiment: Immunoblot of LDL receptor expression in estrogen-treated rats. The class given is in vivo, rat. To be noted: 5 mg/kg subcutaneous for five consecutive days, vs sham, liver.
The next assay concerns adrenal tissues. Nature of the assay: Uptake of lipid from fluorescently labeled HDL injected into estrogen-treated rats, adrenal. The class given is in vivo, rat. The following applies: fluorescently labeled HDL injected into estrogen-treated vs sham-injected rats.

The substance “high density lipoprotein (HDL) prepared from human plasma (from UniProt P02647)” gave a total cellular cholesterol (free and esterified) after incubation with unlabeled HDL (20 µg protein/ml, 5 hrs) in assay [1] of 20 % increase. In addition, the cell association of the lipid-labeled component of HDL (3H-cholesteryl oleate or DiI) in assay [2] was 18%.
Regarding 17-α-ethylenyl estradiol [estrogen], the “SR-BI expression in liver” value in the assay on SR-BI (vs sham, liver) is “dramatically downregulated”. Also, in the assay on SR-BI (vs sham, lung, testes and skin), the “SR-BI levels in tissues showing trace signal” value is given as “no change”. Moreover, the “SR-BI expression in rat adrenal membranes” value in the assay with SR-BI (vs sham-injected controls, adrenal membranes) is listed as “upregulation”. The “Uptake of HDL-derived lipids into liver cells” value in the assay with liver cells is “no similar uptake”. Besides, the LDL receptor expression entry with LDL receptor is given as “tremendous upregulation”. Further, the “Uptake of lipid into adrenal tissues” value in the assay on adrenal tissues was “dramatically increased”.
